Data taken from patent publication US20200239420A1, “MODULATORS OF INDOLEAMINE 2,3-DIOXYGENASE” (GLAXOSMITHKLINE INTELLECTUAL PROPERTY DEVELOPMENT LIMITED, priority 2017, published 2020).

Tests used:
[1] = biological target: T1, indoleamine 2, 3-dioxygenase (IDO1) (Homo sapiens, UniProt P14902); assay: IDO1 PBMC RapidFire MS assay (kynurenine detection); assay type: cell-based; details: IFN-γ/LPS-stimulated human PBMC, 2 days, kynurenine by mass spectrometry; read-out: PBMC pIC50 (converted)
T1 construct: to induce the expression of indoleamine 2, 3-dioxygenase (IDO1); host or cells: human PBMC stimulated with IFN-gamma and LPS
T1 sequence (P14902 whole entry): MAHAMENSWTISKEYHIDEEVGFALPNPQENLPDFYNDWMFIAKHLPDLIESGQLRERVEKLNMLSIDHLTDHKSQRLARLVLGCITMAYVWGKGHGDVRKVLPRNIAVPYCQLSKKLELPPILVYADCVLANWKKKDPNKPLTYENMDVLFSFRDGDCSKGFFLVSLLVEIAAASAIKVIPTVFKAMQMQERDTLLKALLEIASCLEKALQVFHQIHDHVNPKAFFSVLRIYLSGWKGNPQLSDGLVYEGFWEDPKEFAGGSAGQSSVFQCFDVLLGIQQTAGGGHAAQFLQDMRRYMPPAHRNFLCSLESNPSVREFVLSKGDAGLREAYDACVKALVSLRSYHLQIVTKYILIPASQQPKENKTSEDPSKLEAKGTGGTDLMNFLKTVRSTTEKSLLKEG
Description: (§1) Compounds of the present invention were tested via high-throughput cellular assays utilizing detection of kynurenine via mass spectrometry and cytotoxicity as end-points. For the mass spectrometry and cytotoxicity assays, human peripheral blood mononuclear cells (PBMC) (PB003F; AllCells®, Alameda, Calif.) were stimulated with human interferon-γ (IFN-γ) (Sigma-Aldrich Corporation, St. Louis, Mo.) and lipopolysaccharide from Salmonella minnesota (LPS) (Invivogen, San Diego, Calif.) to induce the expression of indoleamine 2, 3-dioxygenase (IDO1). Compounds with IDO1 inhibitory properties decreased the amount of kynurenine produced by the cells via the tryptophan catabolic pathway. Cellular toxicity due to the effect of compound treatment was measured using CellTiter-Glo® reagent (CTG) (Promega Corporation, Madison, Wis.), which is based on luminescent detection of ATP, an indicator of metabolically active cells.
(§2) In preparation for the assays, test compounds were serially diluted 3-fold in DMSO from a typical top concentration of 1 mM or 5 mM and plated at 0.5 μL in 384-well, polystyrene, clear bottom, tissue culture treated plates with lids (Greiner Bio-One, Kremsmünster, Austria) to generate 11-point dose response curves. Low control wells (0% kynurenine or 100% cytotoxicity) contained either 0.5 μL of DMSO in the presence of unstimulated (−IFN-γ/−LPS) PBMCs for the mass spectrometry assay or 0.5 μL of DMSO in the absence of cells for the cytotoxicity assay, and high control wells (100% kynurenine or 0% cytotoxicity) contained 0.5 μL of DMSO in the presence of stimulated (+IFN-γ/+LPS) PBMCs for both the mass spectrometry and cytotoxicity assays.
(§3) Frozen stocks of PBMCs were washed and recovered in RPMI 1640 medium (Thermo Fisher Scientific, Inc., Waltham, Mass.) supplemented with 10% v/v heat-inactivated fetal bovine serum (FBS) (Thermo Fisher Scientific, Inc., Waltham, Mass.), and 1× penicillin-streptomyci antibiotic solution (Thermo Fisher Scientific, Inc., Waltham, Mass.). The cells were diluted to 1,000,000 cells/mL in the supplemented RPMI 1640 medium. 50 μL of either the cell suspension, for the mass spectrometry assay, or medium alone, for the cytotoxicity assay, were added to the low control wells, on the previously prepared 384-well compound plates, resulting in 50,000 cells/well or 0 cells/well respectively. IFN-γ and LPS were added to the remaining cell suspension at final concentrations of 100 ng/ml and 50 ng/ml respectively, and 50 μL of the stimulated cells were added to all remaining wells on the 384-well compound plates. The plates, with lids, were then placed in a 37 °C, 5% CO2 humidified incubator for 2 days.
(§4) Following incubation, the 384-well plates were removed from the incubator and allowed to equilibrate to room temperature for 30 minutes. For the cytotoxicity assay, CellTiter-Glo® was prepared according to the manufacturer's instructions, and 40 μL were added to each plate well. After a twenty-minute incubation at room temperature, luminescence was read on an EnVision® Multilabel Reader (PerkinElmer Inc., Waltham, Mass.). For the mass spectrometry assay, 10 μL of supernatant from each well of the compound-treated plates were added to 40 μL of acetonitrile, containing 10 μM of an internal standard for normalization, in 384-well, polypropylene, V-bottom plates (Greiner Bio-One, Kremsmünster, Austria) to extract the organic analytes. Following centrifugation at 2000 rpm for 10 minutes, 10 μL from each well of the acetonitrile extraction plates were added to 90 μL of sterile, distilled H2O in 384-well, polypropylene, V-bottom plates for analysis of kynurenine and the internal standard on the RapidFire 300 (Agilent Technologies, Santa Clara, Calif.) and 4000 QTRAP MS (SCIEX, Framingham, Mass.). MS data were integrated using Agilent Technologies' RapidFire Integrator software, and data were normalized for analysis as a ratio of kynurenine to the internal standard. […]

[2] = tested on: human peripheral blood mononuclear cells (PBMC); assay: PBMC cytotoxicity assay (CellTiter-Glo); assay type: cell-based; details: 48 h; IFN-γ/LPS-stimulated human PBMC, 2 days, CellTiter-Glo cytotoxicity (pCC50); read-out: PBMC TOX pIC50 (converted)
Description: as §1, §2, §3, §4

[3] = Rat PK; assay type: in vivo; details: male Han Wistar rats, n = 3

IC50 [1] [nM] | AUC(0-inf) ([3]; rat, in vivo, PO, 3 mg/kg) [ng·h/mL] | AUC(0-t) ([3]; rat, in vivo, PO, 3 mg/kg) [ng·h/mL] | Cmax ([3]; rat, in vivo, PO, 3 mg/kg) [ng/mL] | Tmax ([3]; rat, in vivo, PO, 3 mg/kg) [h] | half-life ([3]; rat, in vivo, PO, 3 mg/kg) [h] | Structure (SMILES) | IC50 [2] [nM] | further results
79.4 |  |  |  |  |  | O=C(NC1CC2(CCC(c3ccnc4ccccc34)CC2)C1)c1ccc(Cl)cc1 (centres unmarked) [Example 3, 4-chloro-N-(7-(quinolin-4-yl)spiro[3.5]nonan-2-yl)benzamide] | > 10000 | 
20 | 15500 | 14400 | 1140 | 3 | 5.89 | O=C(NC1CC2(CCC(c3ccnc4ccccc34)CC2)C1)c1ccc(Cl)s1 (centres unmarked) [Example 4, 5-chloro-N-(7-(quinolin-4-yl)spiro[3.5]nonan-2-yl)thiophene-2-carboxamide] | > 10000 | 
63.1 |  |  |  |  |  | O=C(CC1CC2(CCC(c3ccnc4ccccc34)CC2)C1)Nc1ccc(Cl)cc1 (centres unmarked) [Example 5, N-(4-chlorophenyl)-2-(7-(quinolin-4-yl)spiro[3.5]nonan-2-yl)acetamide] | > 10000 | 

More lines, now with the values behind:

Structure (SMILES) | IC50 [1] [nM] | AUC(0-inf) ([3]; rat, in vivo, PO, 3 mg/kg) [ng·h/mL] | AUC(0-t) ([3]; rat, in vivo, PO, 3 mg/kg) [ng·h/mL] | Cmax ([3]; rat, in vivo, PO, 3 mg/kg) [ng/mL] | Tmax ([3]; rat, in vivo, PO, 3 mg/kg) [h] | half-life ([3]; rat, in vivo, PO, 3 mg/kg) [h] | IC50 [2] [nM] | further results
O=C(Nc1ccc(Cl)cc1)[C@@H]1C[C@]12CC[C@H](c1ccnc3ccccc31)CC2 (relative stereo) [Example 1, cis-N-(4-chlorophenyl)-6-(quinolin-4-yl)spiro[2.5]octane-1-carboxamide] | 63.1 | 14000 | 12300 | 1000 | 1 | 7.16 | > 10000 | F ([3]; PO, 3 mg/kg): 60.2%; AUC(0-inf) ([3]; rat, in vivo, IV, 1 mg/kg): 4660 ng·h/mL; AUC(0-t) ([3]; rat, in vivo, IV, 1 mg/kg): 4450 ng·h/mL; MRT inf ([3]; rat, in vivo, IV, 1 mg/kg): 7.35 h; clearance ([3]; rat, in vivo, IV, 1 mg/kg): 3.58 mL/min/kg; half-life ([3]; rat, in vivo, IV, 1 mg/kg): 5.36 h; Vd ([3]; rat, in vivo, IV, 1 mg/kg, read-out: Vss): 1.58 L/kg
O=C(Nc1ccc(Cl)cc1)[C@@H]1C[C@]12CC[C@@H](c1ccnc3ccccc31)CC2 (relative stereo) [Example 2, trans-N-(4-chlorophenyl)-6-(quinolin-4-yl)spiro[2.5]octane-1-carboxamide] | 126 |  |  |  |  |  | > 10000 | 
O=C(Nc1ccc(Cl)cc1)C1CC2(CCC(c3ccnc4ccc(F)cc34)CC2)C1 (centres unmarked) [Example 6, N-(4-chlorophenyl)-7-(6-fluoroquinolin-4-yl)spiro[3.5]nonane-2-carboxamide] | 15.8 |  |  |  |  |  | > 10000 | 
